Source: US10294207B2, “Pyrazole derivatives as TNIK, IKKϵ and TBK1 inhibitor and pharmaceutical composition comprising same” (GREEN CROSS CORPORATION, priority 2015, dated 2019)

Legend:
IKKε = molecular target: T1, IKKε (Homo sapiens, UniProt Q14164); assay: IKKε inhibition, ADP-Glo Kinase Assay; type: biochemical; conditions: luminometer
T1 construct: purchased Invitrogen PR8031B
T1 sequence (Q14164 1-716): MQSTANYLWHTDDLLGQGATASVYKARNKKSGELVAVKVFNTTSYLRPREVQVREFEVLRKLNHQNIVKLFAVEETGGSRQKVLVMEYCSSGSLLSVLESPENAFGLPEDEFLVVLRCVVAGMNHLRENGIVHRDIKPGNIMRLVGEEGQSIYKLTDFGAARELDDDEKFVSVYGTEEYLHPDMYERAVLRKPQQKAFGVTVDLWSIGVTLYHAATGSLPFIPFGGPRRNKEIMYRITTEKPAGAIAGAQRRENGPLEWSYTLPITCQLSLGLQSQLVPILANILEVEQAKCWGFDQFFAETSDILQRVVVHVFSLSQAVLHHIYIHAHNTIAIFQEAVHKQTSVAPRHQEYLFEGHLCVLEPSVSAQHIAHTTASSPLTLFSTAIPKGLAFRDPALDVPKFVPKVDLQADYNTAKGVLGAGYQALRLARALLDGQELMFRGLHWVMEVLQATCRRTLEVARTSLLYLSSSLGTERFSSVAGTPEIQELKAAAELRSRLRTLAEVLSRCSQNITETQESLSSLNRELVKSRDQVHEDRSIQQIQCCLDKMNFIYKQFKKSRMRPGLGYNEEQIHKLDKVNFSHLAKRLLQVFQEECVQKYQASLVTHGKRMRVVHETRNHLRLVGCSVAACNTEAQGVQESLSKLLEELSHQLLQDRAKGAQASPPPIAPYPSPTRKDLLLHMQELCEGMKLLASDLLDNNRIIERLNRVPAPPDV
Procedure, shortened: (§1)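 ADP-Glo luminescence reported ADP produced by each kinase, following the kit protocol. Reactions used commercial kinase enzyme systems in buffer of 40 mM Tris (pH 7.5), 20 mM MgCl2 and 0.1 mg/mL BSA.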

TBK1 = molecular target: T2, TBK1 (Homo sapiens, UniProt Q9UHD2); assay: TBK1 inhibition, ADP-Glo Kinase Assay; type: biochemical; conditions: luminometer
T2 construct: purchased Promega V3991
T2 sequence (Q9UHD2 1-729): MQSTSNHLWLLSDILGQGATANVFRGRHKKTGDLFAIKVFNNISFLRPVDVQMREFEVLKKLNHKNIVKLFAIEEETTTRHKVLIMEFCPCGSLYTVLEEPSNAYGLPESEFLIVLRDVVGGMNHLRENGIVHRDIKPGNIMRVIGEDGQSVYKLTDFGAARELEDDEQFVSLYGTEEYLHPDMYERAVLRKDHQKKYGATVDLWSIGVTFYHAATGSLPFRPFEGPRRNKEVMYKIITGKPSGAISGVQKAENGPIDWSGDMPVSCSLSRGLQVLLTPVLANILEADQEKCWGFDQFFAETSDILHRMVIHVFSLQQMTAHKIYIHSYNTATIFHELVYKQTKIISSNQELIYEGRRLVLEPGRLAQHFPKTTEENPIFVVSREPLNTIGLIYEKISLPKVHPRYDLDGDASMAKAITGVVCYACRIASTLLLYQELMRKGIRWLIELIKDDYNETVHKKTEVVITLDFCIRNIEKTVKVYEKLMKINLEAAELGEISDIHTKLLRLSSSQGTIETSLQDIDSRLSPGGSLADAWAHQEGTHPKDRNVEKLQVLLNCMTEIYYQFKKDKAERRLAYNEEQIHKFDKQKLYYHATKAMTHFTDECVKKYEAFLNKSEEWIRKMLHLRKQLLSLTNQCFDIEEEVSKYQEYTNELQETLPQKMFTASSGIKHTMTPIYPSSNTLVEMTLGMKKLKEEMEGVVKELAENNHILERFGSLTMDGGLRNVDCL
Procedure, shortened: as §1

IC50 (IKKε) [µM]	IC50 (TBK1) [µM]	SMILES
0.014	0.0027	CCC(NC(=O)c1ccc2[nH]nc(NC(=O)c3ccc(N4C[C@@H](C)N[C@@H](C)C4)cc3)c2c1)c1cccs1 (stereo partly drawn) [Example 99, 3-(4-((3R,5S)-3,5-Dimethylpiperazin-1-yl)benzamido)-N-(1-(thiophen-2-yl)propyl)-1H-indazole-5-carboxamide 2,2,2-trifluoroacetate]
0.95	0.22	Cc1noc(CNC(=O)c2ccc3[nH]nc(NC(=O)c4ccc(N5CCOCC5)cc4)c3c2)n1 [Example 100, N-((3-Methyl-1,2,4-oxadiazol-5-yl)methyl)-3-(4-morpholinobenzamido)-1H-indazole-5-carboxamide 2,2,2-trifluoroacetate]
0.96	0.15	Cc1noc(CNC(=O)c2ccc3[nH]nc(NC(=O)c4ccc(N5CCN(C)CC5)cc4)c3c2)n1 [Example 101, N-((3-Methyl-1,2,4-oxadiazol-5-yl)methyl)-3-(4-(4-methylpiperazin-1-yl)benzamido)-1H-indazole-5-carboxamide 2,2,2-trifluoroacetate]
0.025	0.0058	CCC(NC(=O)c1ccc2[nH]nc(NC(=O)c3ccc(N4CCNCC4)cc3)c2c1)c1cccs1 (centres unmarked) [Example 102, 3-(4-(Piperazin-1-yl)benzamido)-N-(1-(thiophen-2-yl)propyl)-1H-indazole-5-carboxamide]
0.44	0.02	CN1CCN(c2ccc(C(=O)Nc3n[nH]c4ccc(C(=O)NCc5nccs5)cc34)cc2)CC1 [Example 103, 3-(4-(4-Methylpiperazin-1-yl)benzamido)-N-(thiazol-2-ylmethyl)-1H-indazole-5-carboxamide 2,2,2-trifluoroacetate]
0.37	0.026	O=C(NCc1nccs1)c1ccc2[nH]nc(NC(=O)c3ccc(N4CCOCC4)cc3)c2c1 [Example 104, 3-(4-Morpholinobenzamido)-N-(thiazol-2-ylmethyl)-1H-indazole-5-carboxamide 2,2,2-trifluoroacetate]
1.14	0.1	O=C(NCc1ncon1)c1ccc2[nH]nc(NC(=O)c3ccc(N4CCOCC4)cc3)c2c1 [Example 105, N-((1,2,4-Oxadiazol-3-yl)methyl)-3-(4-morpholinobenzamido)-1H-indazole-5-carboxamide 2,2,2-trifluoroacetate]
0.15	0.023	CN1CCN(c2ccc(C(=O)Nc3n[nH]c4ccc(C(=O)NCC5CCC5)cc34)cc2)CC1 [Example 106, N-(Cyclobutylmethyl)-3-(4-(4-methylpiperazin-1-yl)benzamido)-1H-indazole-5-carboxamide]
0.015	0.0028	CCC(NC(=O)c1ccc2[nH]nc(NC(=O)c3ccc(N4CCC(O)CC4)cc3)c2c1)c1cccs1 (centres unmarked) [Example 108, 3-(4-(4-Hydroxypiperidin-1-yl)benzamido)-N-(1-(thiophen-2-yl)propyl)-1H-indazole-5-carboxamide]
0.025	0.0036	CCC(NC(=O)c1ccc2[nH]nc(NC(=O)c3ccc(N4CCN(CC)CC4)cc3)c2c1)c1cccs1 (centres unmarked) [Example 109, 3-(4-(4-Ethylpiperazin-1-yl)benzamido)-N-(1-(thiophen-2-yl)propyl)-1H-indazole-5-carboxamide]
0.036	0.0072	CCC(NC(=O)c1ccc2[nH]nc(NC(=O)c3ccc(N4CCC(OC)CC4)cc3)c2c1)c1cccs1 (centres unmarked) [Example 110, 3-(4-(4-methoxypiperidin-1-yl)benzamido)-N-(1-(thiophen-2-yl)propyl)-1H-indazole-5-carboxamide]
0.074	0.014	CC[C@H](NC(=O)c1ccc2[nH]nc(NC(=O)c3ccc(N4CCN(C)CC4)cc3)c2c1)c1cccs1 [Example 111, (S)-3-(4-(4-Methylpiperazin-1-yl)benzamido)-N-(1-(thiophen-2-yl)propyl)-1H-indazole-5-carboxamide]
0.011	0.0042	CC[C@@H](NC(=O)c1ccc2[nH]nc(NC(=O)c3ccc(N4CCN(C)CC4)cc3)c2c1)c1cccs1 [Example 112, (R)-3-(4-(4-Methylpiperazin-1-yl)benzamido)-N-(1-(thiophen-2-yl)propyl)-1H-indazole-5-carboxamide]
0.18	0.018	CCCCNC(=O)c1ccc2[nH]nc(NC(=O)c3ccc(N4CCN(C)CC4)cc3)c2c1 [Example 113, N-Butyl-3-(4-(4-methylpiperazin-1-yl)benzamido)-1H-indazole-5-carboxamide 2,2,2-trifluoroacetate]
0.41	0.082	CC(C)CCNC(=O)c1ccc2[nH]nc(NC(=O)c3ccc(N4CCN(C)CC4)cc3)c2c1 [Example 114, N-Isopentyl-3-(4-(4-methylpiperazin-1-yl)benzamido)-1H-indazole-5-carboxamide 2,2,2-trifluoroacetate]
0.97	0.071	CCCCNC(=O)c1ccc2[nH]nc(NC(=O)c3ccc(N4CCOCC4)cc3)c2c1 [Example 115, N-Butyl-3-(4-morpholinobenzamido)-1H-indazole-5-carboxamide 2,2,2-trifluoroacetate]
3.12	0.48	CC(C)CCNC(=O)c1ccc2[nH]nc(NC(=O)c3ccc(N4CCOCC4)cc3)c2c1 [Example 116, N-Isopentyl-3-(4-morpholinobenzamido)-1H-indazole-5-carboxamide 2,2,2-trifluoroacetate]
0.071	0.0033	C[C@H]1CN(c2ccc(C(=O)Nc3n[nH]c4ccc(C(=O)NCc5cccs5)cc34)cc2)CCN1 [Example 117, (S)-3-(4-(3-Methylpiperazin-1-yl)benzamido)-N-(thiophen-2-ylmethyl)-1H-indazole-5-carboxamide 2,2,2-trifluoroacetate]
1.96	0.3	CN1CCN(c2ccc(C(=O)Nc3n[nH]c4ccc(C(=O)NCc5ncon5)cc34)cc2)CC1 [Example 118]
1.24	0.46	O=C(NCc1c[nH]nn1)c1ccc2[nH]nc(NC(=O)c3ccc(N4CCOCC4)cc3)c2c1 [Example 119]
0.11	0.0063	CN1CCN(c2ccc(C(=O)Nc3n[nH]c4ccc(C(=O)NCc5ccncc5)cc34)cc2)CC1 [Example 121, 3-(4-(4-Methylpiperazin-1-yl)benzamido)-N-(pyridin-4-ylmethyl)-1H-indazole-5-carboxamide]
0.025	0.0044	O=C(Nc1n[nH]c2ccc(C(=O)NC(c3cccs3)C3CC3)cc12)c1ccc(N2CCOCC2)cc1 (centres unmarked) [Example 122, N-(Cyclopropyl(thiophen-2-yl)methyl)-3-(4-morpholinobenzamido)-1H-indazole-5-carboxamide]
4.47	0.66	O=C(Nc1n[nH]c2ccc(CNCc3cccs3)cc12)c1ccc(N2CCOCC2)cc1 [Example 123]
> 10	2.44	CCC(NCc1ccc2[nH]nc(NC(=O)c3ccc(N4CCN(C)CC4)cc3)c2c1)c1cccs1 (centres unmarked) [Example 124]
0.037	0.026	CN1CCN(c2ccc(C(=O)Nc3n[nH]c4ccc(C(=O)NC(c5cccs5)C5CC5)cc34)cc2)CC1 (centres unmarked) [Example 125, N-(Cyclopropyl(thiophen-2-yl)methyl)-3-(4-(4-methylpiperazin-1-yl)benzamido)-1H-indazole-5-carboxamide]
